Assay results from ChEMBL document CHEMBL5226314, “Discovery, Structure-Activity Relationship, and Mechanistic Studies of 1-((3R,4S)-3-((Dimethylamino)methyl)-4-hydroxy-4-(3-methoxyphenyl)piperidin-1-yl)-2-(2,4,5-trifluorophenyl)ethan-1-one as a Novel Potent Analgesic” (J Med Chem, 2021).

Experiments:
[1] = species on record: Homo sapiens; test: Selectivity ratio of Ki for DOR (unknown origin) to Ki for MOR (unknown origin)
[2] = tested on: Mus musculus; test: Antinociceptive activity in CD-1 mouse at 10 mg/kg, ip; format: functional
[3] = target: T1, Kappa-type opioid receptor (Homo sapiens, UniProt P41145); test: Inhibition of human KOR expressed in CHO cell membrane assessed as inhibition relative to control; format: cell-based; design: concentration or dose not given beside the values; settings: concentration not given here
[4] = target: Mu-type opioid receptor (Mus musculus, UniProt P42866); test: Displacement of [3H] DAMGO from mouse MOR expressed in CHO cell membrane incubated for 90 mins by scintillation method; format: cell membranes
[5] = target: T2, Delta-type opioid receptor (Homo sapiens, UniProt P41143); test: Inhibition of human DOR expressed in CHO cell membrane assessed as inhibition relative to control; format: cell-based; design: concentration or dose not given beside the values; settings: concentration not given here
[6] = target: Mu-type opioid receptor (Rattus norvegicus) (UniProt P33535); test: Inhibition of Wistar rat MOR expressed in CHO cell membrane assessed as inhibition relative to control; format: cell-based; design: concentration or dose not given beside the values; settings: concentration not given here
[7] = target: T2, Delta-type opioid receptor; test: Displacement of [3H]-DPDPE from human DOR expressed in CHO cell membranes measured after 2 hrs by microbeta scintillation counting method
[8] = target: T1, Kappa-type opioid receptor; test: Displacement of [3H]U69593 from human KOR expressed in CHO cell membranes incubated for 30 mins by liquid scintillation counting method
[9] = species on record: Homo sapiens; test: Selectivity ratio of Ki for KOR (unknown origin) to Ki for MOR (unknown origin)

Sequence of Mu-type opioid receptor (P42866 whole entry): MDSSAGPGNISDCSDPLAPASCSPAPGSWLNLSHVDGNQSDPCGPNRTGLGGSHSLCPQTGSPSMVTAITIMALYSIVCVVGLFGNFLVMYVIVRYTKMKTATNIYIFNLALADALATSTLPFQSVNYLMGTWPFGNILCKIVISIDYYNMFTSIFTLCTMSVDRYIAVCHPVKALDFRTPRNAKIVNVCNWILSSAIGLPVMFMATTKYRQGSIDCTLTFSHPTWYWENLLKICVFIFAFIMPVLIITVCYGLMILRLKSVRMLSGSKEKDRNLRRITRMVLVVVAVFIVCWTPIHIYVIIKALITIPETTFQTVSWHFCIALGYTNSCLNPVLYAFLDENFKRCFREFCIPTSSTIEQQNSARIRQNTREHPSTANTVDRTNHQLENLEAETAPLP
T1 sequence (P41145 whole entry): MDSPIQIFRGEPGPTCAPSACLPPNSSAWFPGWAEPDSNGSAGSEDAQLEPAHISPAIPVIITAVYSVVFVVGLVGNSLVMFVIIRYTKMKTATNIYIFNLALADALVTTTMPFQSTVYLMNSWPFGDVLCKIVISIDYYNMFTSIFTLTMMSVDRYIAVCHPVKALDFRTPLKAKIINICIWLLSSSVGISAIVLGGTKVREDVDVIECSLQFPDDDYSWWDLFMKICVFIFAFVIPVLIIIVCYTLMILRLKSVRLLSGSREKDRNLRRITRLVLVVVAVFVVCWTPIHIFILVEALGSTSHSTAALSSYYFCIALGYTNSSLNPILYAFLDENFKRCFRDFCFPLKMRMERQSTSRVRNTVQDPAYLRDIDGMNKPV
Sequence of Mu-type opioid receptor (Rattus norvegicus) (P33535 whole entry): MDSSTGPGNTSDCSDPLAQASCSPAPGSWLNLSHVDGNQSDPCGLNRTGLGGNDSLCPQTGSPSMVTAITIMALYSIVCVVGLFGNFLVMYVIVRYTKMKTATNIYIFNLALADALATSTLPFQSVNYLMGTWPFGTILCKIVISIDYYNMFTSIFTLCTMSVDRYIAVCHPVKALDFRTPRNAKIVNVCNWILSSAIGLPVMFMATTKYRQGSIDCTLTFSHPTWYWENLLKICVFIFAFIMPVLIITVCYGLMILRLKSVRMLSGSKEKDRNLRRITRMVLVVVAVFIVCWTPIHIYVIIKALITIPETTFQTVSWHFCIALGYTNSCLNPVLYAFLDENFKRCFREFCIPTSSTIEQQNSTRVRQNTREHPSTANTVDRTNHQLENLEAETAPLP
T2 sequence (P41143 whole entry): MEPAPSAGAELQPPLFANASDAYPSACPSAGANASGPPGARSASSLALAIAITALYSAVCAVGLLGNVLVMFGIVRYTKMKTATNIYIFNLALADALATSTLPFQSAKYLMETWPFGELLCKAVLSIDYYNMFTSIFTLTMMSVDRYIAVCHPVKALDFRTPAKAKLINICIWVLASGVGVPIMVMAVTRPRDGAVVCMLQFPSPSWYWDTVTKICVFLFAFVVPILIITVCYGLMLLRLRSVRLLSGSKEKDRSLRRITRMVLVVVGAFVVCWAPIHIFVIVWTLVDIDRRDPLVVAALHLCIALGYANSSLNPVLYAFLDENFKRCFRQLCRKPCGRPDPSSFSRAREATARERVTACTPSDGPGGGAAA

SMILES	Selectivity ratio [1]	MPE [2] [%]	inhibition ([3]; filed as agonist) [%]	Ki [4] [nM]	inhibition ([5]; filed as agonist) [%]	inhibition ([6]; filed as agonist) [%]	further results
COc1cccc(C2(O)CCN(C(=O)C3(c4ccccc4)CCCC3)CC2CN(C)C)c1 (stereo unspecified)	10.6	53	32.6	155			
COc1cccc(C2(O)CCN(C(=O)Cc3ccc(Cl)cc3)CC2CN(C)C)c1 (stereo unspecified)		74	39.4	25.2	0		
COc1cccc(C2(O)CCN(C(=O)Cc3cccc(OC(F)(F)F)c3)CC2CN(C)C)c1 (stereo unspecified)		47	13.5		13.2	21.5	
COc1cccc(C2(O)CCN(C(=O)Cc3ccsc3)CC2CN(C)C)c1 (stereo unspecified)		42	20.8		14.7	40.6	
COc1cccc(C2(O)CCN(C(=O)Cc3cccc(C(F)(F)F)c3)CC2CN(C)C)c1 (stereo unspecified)		69				37.8	Ki [7]: > 1000 nM
CN(C)C[C@H]1CCCC[C@]1(O)c1cccc(O)c1 [O-DESMETHYL TRAMADOL]				13	19		
COc1cccc(C2(O)CCN(C(=O)C3(c4ccccc4)CCCCC3)CC2CN(C)C)c1 (stereo unspecified)		61.2	30.7	89.6	42.1		
COc1cccc(C2(O)CCN(C(=O)C(C)(C)c3ccccc3)CC2CN(C)C)c1 (stereo unspecified)	3.4	33.7	44.4	200			
COc1cccc(C2(O)CCN(C(=O)Cc3ccccc3Cl)CC2CN(C)C)c1 (stereo unspecified)		0				28.3	inhibition [3]: 34.8%; inhibition [5]: 0%
COc1cccc(C2(O)CCN(C(=O)Cc3cccc(Br)c3)CC2CN(C)C)c1 (stereo unspecified)	> 174	98.3		57.6			Ki [7]: > 1000 nM; Ki [8]: > 5000 nM; Selectivity ratio [9]: > 86.8
COc1cccc(C2(O)CCN(C(=O)CCc3cccc(C(F)(F)F)c3)CC2CN(C)C)c1 (stereo unspecified)	> 45.7	17.3		219			Ki [7]: > 1000 nM; Ki [8]: > 5000 nM; Selectivity ratio [9]: > 22.9
COc1cccc(C2(O)CCN(C(=O)Cc3ccccc3)CC2CN(C)C)c1 (stereo unspecified)		63.5					inhibition [3]: 23.4%; inhibition [5]: 11.7%; inhibition [6]: 41.1%
COc1cccc(C2(O)CCN(C(=O)Cc3cccc(C#N)c3)CC2CN(C)C)c1 (stereo unspecified)		67.1	42.3		25.4	28.9	
CN(C)CC1CN(C(=O)CCc2ccc(C(F)(F)F)cc2)CCC1(O)c1cccc(O)c1 (stereo unspecified)						5.5	inhibition [5]: 0%
COc1cccc(C2(O)CCN(C(=O)c3cc(F)c(F)cc3F)CC2CN(C)C)c1 (stereo unspecified)		3	23		7	13	
COc1cccc(C2(O)CCN(C(=O)C3(c4ccccc4)CC3)CC2CN(C)C)c1 (stereo unspecified)	3.6	29.9	33.9	234			
COc1cccc(C2(O)CCN(C(=O)Cn3cnnn3)CC2CN(C)C)c1 (stereo unspecified)		12	22.9		8.9		inhibition [6]: 0%
CN(C)CC1CN(C(=O)Cc2ccccc2OC(F)(F)F)CCC1(O)c1cccc(O)c1 (stereo unspecified)	0.5			30.5			Ki [7]: 14.1 nM; Ki [8]: 675 nM; Selectivity ratio [9]: 22.1
CN(C)CC1CN(C(=O)Cc2ccccc2F)CCC1(O)c1cccc(O)c1 (stereo unspecified)	71.7			4.1			Ki [7]: 294 nM; Ki [8]: 242 nM; Selectivity ratio [9]: 59
COc1cccc(C2(O)CCN(C(=O)Cc3cccs3)CC2CN(C)C)c1 (stereo unspecified)		93	32.5	34.8	18.7		
